In ChEMBL document CHEMBL3044938, “Chromatographic separation and in vitro activity of sorgoleone congeners from the roots of sorghum bicolor” (J Agric Food Chem, 2003):

Each compound was assayed against Photosystem II protein D1 (Spinacia oleracea, UniProt P69560) (assay: Inhibition of photosystem II mediated oxygen evolution in Spinacia oleracea (spinach) thylakoid measured for 25 sec). Details: read-out: I50.

SMILES	IC50
CCC/C=C\C/C=C\CCCCCCCC1=C(O)C(=O)C=C(OC)C1=O [Sorgoleone-360]	104 nM
CCCCCC/C=C\CCCCCCCC1=C(O)C(=O)C=C(OC)C1=O [Sorgoleone-362]	109 nM
CCCCCCCCCCCCCC1=C(O)C(=O)C=C(OC)C1=O [Sorgoleone-364]	103 nM
C=CC/C=C\C/C=C\CCCCCCCC1=C(O)C(=O)C=C(OC)C1=O [SORGOLEONE]	65 nM
